From patent publication US20260098019A1, “SYNTHESIS OF NSAID CONJUGATES AS ANTI-INFLAMMATORY AGENTS USING THE MOLECULAR HYBRIDIZATION” (AUGUSTA UNIVERSITY RESEARCH INSTITUTE, INC., priority 2022, published 2026)
Like-named read-outs stand apart in the source and are kept apart here. Marks after values point to notes of the source that are not given here.

Experiments:
hot plate latency = test: hot plate test (central analgesic); assay type: in vivo, albino mice; details: for Observed property: % Protection central analgesic (120 min); for % Protection: vs control; for Potency: at 120 min. compared to indomethacin; for Latency period ± SE: 10 mg/kg indomethacin mol equivalent i.p., cutoff 15 seconds
Experimental: An in vivo standard hot plate test was performed. […] The control group animals were given sterile/distilled water with few drops of Tween 80. The maximum cutoff time was 15 seconds to prevent tissue damage. Response latencies were measured at 30, 60, 90 and 120 inns. The % protection was calculated by equ. (5), where, Ti, To are the latency time mean of the tested compound and control group respectively (Table 3).

COX-1 = COX-1 (UniProt P05979); assay type: biochemical, human; details: ± SD
COX-1, sequence (P05979 whole entry): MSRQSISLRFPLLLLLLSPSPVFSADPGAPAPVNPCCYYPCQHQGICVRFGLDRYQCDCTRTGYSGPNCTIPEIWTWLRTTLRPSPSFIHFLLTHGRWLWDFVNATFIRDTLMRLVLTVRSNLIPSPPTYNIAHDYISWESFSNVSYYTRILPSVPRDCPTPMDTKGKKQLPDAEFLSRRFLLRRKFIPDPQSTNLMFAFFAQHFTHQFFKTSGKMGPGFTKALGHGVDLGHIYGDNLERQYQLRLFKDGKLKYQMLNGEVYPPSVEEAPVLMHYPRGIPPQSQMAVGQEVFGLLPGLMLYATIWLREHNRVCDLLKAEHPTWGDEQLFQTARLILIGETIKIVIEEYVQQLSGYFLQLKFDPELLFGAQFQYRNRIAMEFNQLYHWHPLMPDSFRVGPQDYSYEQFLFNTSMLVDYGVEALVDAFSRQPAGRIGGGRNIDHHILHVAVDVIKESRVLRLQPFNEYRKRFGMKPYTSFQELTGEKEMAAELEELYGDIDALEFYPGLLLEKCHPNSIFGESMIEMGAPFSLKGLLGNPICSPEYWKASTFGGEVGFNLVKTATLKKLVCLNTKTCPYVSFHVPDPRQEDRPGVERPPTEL
Text: (§1) Rev. […] Thromb. Vasc. […] Rev. […] Rev. […] Rev. Oncol. Hematol. […] Curr. Pharm. Des. […] Luong, et al., Nat. Struct. […] A. and Marnett, L. J., Chem. Rev. […] Drug Discov. […] Biomol.

[1] = test system: acetic acid-induced writhing; test: acetic acid-induced writhing test (peripheral analgesic); assay type: in vivo, albino mice; details: for 1/(observed property): 1/(% inhibition) peripheral analgesic; for Observed property: % inhibition/protection peripheral analgesic; for % Inhibition/protection: vs control; for Potency: % inhibition/protection compared to indomethacin
Experimental: Peripheral analgesic activity was measured by the standard acetic acid-induced writhing test in mice. […] One hour after the i.p. administration, each mouse was injected with 0.1 ml of 1% acetic acid solution i.p. The control group animals were given sterile/distilled water with few drops of Tween 80. Starting 5 min after the acetic acid injection, the number of muscular contractions in each mouse was counted for 30 min. A significant reduction in the number of writhing by a conjugate compared with control animals was considered as a positive analgesic response. Percentage protection was calculated according to equ. (3), where n is the average number of writhing in the control group and n′ is the average number of writhing in the treated group. The % potency was calculated by equ. (4) (Table 2).

gastric mucosa [2] = test: ulcerogenic liability; details: for ulcers or erosions to the gastric / ulcerogenic liability (in words): mice; for ulcers or erosions to the gastric / ulcerogenic liability (in words) / % Incidence of ulcer divided by 10 / Average of ulcer number / Average severity of ulcer / Number of animals with ulcer: oral; for % Incidence of ulcer divided by 10 / Average of ulcer number / Average severity of ulcer / Number of animals with ulcer: three successive days, 10 mg/kg indomethacin mol equivalent; for Number of animals with ulcer: 6 animals; for Ulcer index: sum of the three values
Experimental: (§2) The ulcerogenic liability of conjugates was determined in albino mice following a standard method. Animals of either sex (pregnant females were excluded) weighing 20-25 g were divided into 8 groups of 6 animals each. The animals fasted 18 h before drug administration. […] The control group animals were given water with a few drops of Tween 80. The animals were sacrificed by cervical dislocation and the stomach was removed, opened along the greater curvature, and rinsed with saline. The gastric mucosa was examined with a magnifying lens (10×) for the presence of lesions and erosions. The ulcer index was calculated (Table 4) and the degree of ulcerogenic effect was expressed in terms of: (1) the percentage incidence of ulcers divided by 10; (2) average number of ulcers per stomach; and (3) average severity of ulcers. The ulcer index is the value that resulted from the sum of the above three values.

COX-2 = molecular target: T1, COX-2 (Homo sapiens, UniProt P35354); test: Inhibition of COX-2; assay type: biochemical; details: for SI: SI=IC50 (COX-1)/IC50 (COX-2); for IC50: ± SD
T1 construct: purchased BioVision Incorporated K547-100 and K548-100 (for COX-1/2)
T1 sequence (P35354 18-604): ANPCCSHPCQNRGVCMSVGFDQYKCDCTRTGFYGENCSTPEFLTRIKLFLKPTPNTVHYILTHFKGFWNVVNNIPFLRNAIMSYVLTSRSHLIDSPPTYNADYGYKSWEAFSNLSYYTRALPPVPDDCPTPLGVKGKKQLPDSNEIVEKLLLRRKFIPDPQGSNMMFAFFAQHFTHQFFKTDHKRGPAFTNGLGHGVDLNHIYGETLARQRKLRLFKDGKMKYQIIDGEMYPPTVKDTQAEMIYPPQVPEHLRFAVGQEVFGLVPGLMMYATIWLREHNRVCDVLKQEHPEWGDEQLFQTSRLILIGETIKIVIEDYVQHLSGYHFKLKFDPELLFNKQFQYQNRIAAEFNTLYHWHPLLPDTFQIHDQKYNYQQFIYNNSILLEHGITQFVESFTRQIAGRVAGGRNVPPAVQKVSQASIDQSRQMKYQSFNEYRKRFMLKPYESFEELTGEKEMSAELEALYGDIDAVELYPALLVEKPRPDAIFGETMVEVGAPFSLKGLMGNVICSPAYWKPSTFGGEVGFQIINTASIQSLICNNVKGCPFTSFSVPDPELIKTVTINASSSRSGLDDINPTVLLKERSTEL
Text: as §1

[3] = test system: LPS-stimulated RAW264.7 macrophages; test: NO production (nitrite, Griess method) in LPS-stimulated RAW264.7; assay type: cell-based; details: LPS 10 ng/mL
Experimental: The Griess method was used to determine the nitrite concentration in cell culture medium. […] The next day, a volume of 150 μL of the cell supernatant was transferred to a new 96-well plate and 130 μL of deionized water was added on top of it. Lastly, a volume of 20 μL of Griess reagent was added to the cell supernatant and incubated for 30 min in the dark at room temperature. Griess reagent was prepared according to instructions: 1:1 ratio of N-1-naphthyl-ethylenediamine (0.1%) and phosphoric acid (5%) in sulphanilamide (1%) in distilled water. […] The concentration of nitrite was determined using a NaNO2 standard curve.
The nitrite production in the supernatant in the culture medium was measured using Greiss reaction.

RAW264.7 macrophages = test: cell viability, MTT assay; assay type: cell-based; details: LPS-stimulated cells treated, FIG. 2B
Experimental: To ensure that the inflammatory response is not due to cell toxicity, cell viability measurements were done using MTT colorimetric assay. On the same cell cultured 96-well plate from the previous experiment, 100 μL of 1 mg/mL MTT solution was added to the adherent RAW264.7 macrophages cells at 37° C. and incubated for 2 h. After that, 100 μL of DMSO was added to the wells to dissolve insoluble formazan crystals. Absorbance was measured spectrophotometrically at 540 nm using a NanoSPECTROstar microplate reader (BMG LABTECH, Germany). Cell viability was then calculated as a percentage of untreated control.
Cytotoxicity of the macrophages was evaluated using MTT assay.

gastric mucosa [4] = details: mouse, in vivo
Experimental: as §2

toxicological bioassay = details: 50 mg/kg indomethacin mol equivalent (5 folds of anti-inflammatory dose); 24 h post-administration
Experimental: Albino mice weighing 20-25 g were divided into 6 groups of 6 mice each. […] The toxic symptoms and mortality rates were recorded 24 h post-administration in each group.
Five times of the anti-inflammatory dose was orally administrated.

[5] = 10 mg/kg indomethacin mol equivalent i.p.

Structure (SMILES)	Observed property (hot plate latency)	IC50 (COX-1) [µM]	1/(observed property) [1]	Observed property [1]	% Inhibition/protection [1, 5] [%]	ulcers or erosions to the gastric / ulcerogenic liability (in words) (gastric mucosa [2])	% Incidence of ulcer divided by 10 (gastric mucosa [2])	Average of ulcer number (gastric mucosa [2])	Average severity of ulcer (gastric mucosa [2])	Number of animals with ulcer (gastric mucosa [2])	Ulcer index (gastric mucosa [2])	SI (COX-2)	IC50 (COX-2) [µM]	% Protection (hot plate latency; After 30 min.)	% Protection (hot plate latency; After 120 min.)	Potency (hot plate latency) [%]	Potency [1] [%]	other results
CC(C)Cc1ccc(C(C)C(=O)OCc2cn(-c3ccccc3Cl)nn2)cc1 (centres unmarked) [Compound 5a, (1-(2-Chlorophenyl)-1H-1,2,3-triazol-4-yl)methyl 2-(4-isobutylphenyl)propanoate]	54.5	17.2 ± 0.41	0.01201	83.3	83.3	none and No ulcerogenic liability	0	0	0	0	0	–	–	–	–	–	–	–
Cc1ccc(-n2cc(COC(=O)C(C)c3ccc(CC(C)C)cc3)nn2)cc1 (centres unmarked) [Compound 5d, (1-(p-Tolyl)-1H-1,2,3-triazol-4-yl)methyl 2-(4-isobutylphenyl)propanoate]	1.2	9.64 ± 0.27	0.01212	82.5	–	none and No ulcerogenic liability	0	0	0	0	0	2.158	4.47 ± 0.13	–	–	–	–	–
CC(C)Cc1ccc(C(C)C(=O)O)cc1 (centres unmarked) [Ibu, 2-(4-isobutylphenyl)propanoic acid, reference compound]	–	–	–	–	58.5	–	3.33	0.33	0.67	2/6	–	–	–	(61.7) %	(54.3) %	96.1	81.5	–
COc1ccccc1-n1cc(COC(=O)C(C)c2ccc(CC(C)C)cc2)nn1 (centres unmarked) [Compound 5e, (1-(2-Methoxyphenyl)-1H-1,2,3-triazol-4-yl)methyl 2-(4-isobutylphenyl)propanoate]	28	5.42	0.0158	63.3	–	none and No ulcerogenic liability	0	0	0	0	0	0.387	14 ± 0.4	–	–	–	–	decrease in NO production in comparison to LPS-stimulated cells (in words) [3]: insignificant decrease
CC(C)Cc1ccc(C(C)C(=O)OCc2cn(-c3ccc(Cl)cc3)nn2)cc1 (centres unmarked) [Compound 5b, (1-(4-Chlorophenyl)-1H-1,2,3-triazol-4-yl)methyl 2-(4-isobutylphenyl)propanoate]	27.1	119 ± 3.4	0.01143	87.5	87.5	none and No ulcerogenic liability	0	0	0	0	0	–	–	–	–	–	–	–
COc1ccc2c(c1)c(CC(=O)O)c(C)n2C(=O)c1ccc(Cl)cc1 [Indo, indomethacin, reference compound]	–	–	–	–	–	–	10	2	1.67	6/6	–	–	–	(87.1) %	(56.5) %	100	100.0	cytotoxicity (MTT) in comparison to control (RAW264.7 macrophages): no significant cytotoxicity; % Protection (hot plate latency; After 60 min.): 1.6** (80.9) %; % Protection (hot plate latency; After 90 min.): (57.9) %; Potency ([1]; listed as indomethacin): 100%
C#CCOC(=O)C(C)c1ccc(CC(C)C)cc1 (centres unmarked) [Compound 3, prop-2-yn-1-yl 2-(4-isobutylphenyl) propanoate]	–	19.4 ± 0.55	–	–	71.8	–	–	–	–	–	–	2.262	8.6 ± 0.24	(55.2) %	(14.9) %	26.4	100.0	Latency period ± SE (hot plate latency; After 30 min.): 10.37 s; Latency period ± SE (hot plate latency; After 60 min.): 10.78 s; % Protection (hot plate latency; After 60 min.): 2.1** (48.3) %; Latency period ± SE (hot plate latency; After 90 min.): 10.62 ± 2.2 s; % Protection (hot plate latency; After 90 min.): (19.2) %; Latency period ± SE (hot plate latency; After 120 min.): 10.35 ± 1.7 s; Ulcer index (gastric mucosa [4]): 4.33; % Incidence of ulcer divided by 10 (gastric mucosa [4]; po, 10 mg/kg): 3.33; Average of ulcer number (gastric mucosa [4]; po, 10 mg/kg): 0.33; Average severity of ulcer (gastric mucosa [4]; po, 10 mg/kg): 0.67; Number of animals with ulcer (gastric mucosa [4]; po, 10 mg/kg): 2/6; Writing reflex ± SE ([1]; number of writhing counted for 30 min, 10 mg/kg indomethacin mol equivalent i.p.): 11.3 ± 0.9; toxic symptoms and mortality (toxicological bioassay): No toxic symptoms or mortality
COc1ccc(-n2cc(COC(=O)Cc3c(C)n(C(=O)c4ccc(Cl)cc4)c4ccc(OC)cc34)nn2)cc1 [Compound 8f, (1-(4-Methoxyphenyl)-1H-1,2,3-triazol-4-yl)methyl 2-(1-(4-chlorobenzoyl)-5-methoxy-2-methyl-1H-indol-3-yl)acetate]	66.5	–	0.01497	66.8	–	–	–	–	–	–	–	–	–	–	–	–	–	–
COc1ccc2c(c1)c(CC(=O)OCc1cn(-c3ccc([N+](=O)[O-])cc3)nn1)c(C)n2C(=O)c1ccc(Cl)cc1 [Compound 8g, (1-(4-Nitrophenyl)-1H-1,2,3-triazol-4-yl)methyl 2-(1-(4-chlorobenzoyl)-5-methoxy-2-methyl-1H-indol-3-yl)acetate]	2.7	–	0.01038	96.3	–	–	–	–	–	–	–	–	–	–	–	–	–	–
